The source of these data is patent US9085559B2, “Triazine-aryl-bis-indoles and process for preparation thereof” (COUNCIL OF SCIENTIFIC & INDUSTRIAL RESEARCH, priority 2010, dated 2015).

A short description of this data set: Pharmacokinetic study, oral and i.v. route. Format: in vivo, swiss mice. As to conditions: mice; for half-life: read-out: T ½ (converted). The procedure:
FIG. 6. Pharmacokinetics of IICT-TA67 through oral route. FIG. 7. Pharmacokinetics of IICT-TA67 through intravenous (i.v) route in mice. IICT-TA67 (20 mg/kg) was administered orally (or 10 mg/kg by i.v. route) as a fine suspension in 1% Gum acacia. Blood samples were drawn from retro-orbital plexus at designated times in pre-labeled heparinised tubes and centrifuged (3500 rpm×10 minutes) to obtain the plasma. Blood samples were collected at 0, 5, 15 and 30 min, and 1, 2, 4, 6, 8, 16 and 24 hrs post-administration after oral/iv route. HPLC determinations were done on Shimadzu chromatograph (Model: LC-10 Atvp equipped with a diode array detector). The Molecule ICT-TA67 was determined at 276 nm using RP-18 column (5 μm×25 cm). Mobile phase consisted of acetonitrile: water (55:45) with a flow rate of 1.0 ml/min.
Animals. Healthy swiss mice of both the sexes (25-30) were used. The animals were kept (3/cage) under controlled conditions (temp 26±2° C.; relative humidity 50±5%; 12 h light/dark cycle) and maintained on pelleted rodent diet (Ashirwad Industries Ltd. Chandigarh, India). Water was provided ad libitum. Institutional Animal Ethics committee approved the animal experiments. Animals were fasted for 16 hours before use.
Step 1: Dosing: IICT-TA67 (20 mg/kg) was administered orally (or 10 mg/kg by i.v.route) as a fine suspension in 1% Gum acacia. Blood samples were drawn from retro-orbital plexus at designated times in pre-labeled heparinised tubes and centrifuged (3500 rpm×10 minutes) to obtain the plasma. Blood samples were collected at 0, 5, 15 and 30 min, and 1, 2, 4, 6, 8, 16 and 24 hrs post-administration after oral/iv route.
Step 2: HPLC determinations: Aliquots of plasma were mixed with acetonitrile (1:2), vortexed for two minutes (2500 rpm) and centrifuge at 5000 rpm for 10 min. The organic layer was collected and evaporated to dryness using solvent evaporator (Model: SPD 111V, Thermo Electron Corporation, MA). The dried samples were reconstituted in mobile phase for HPLC analysis. In a similar manner samples were also prepared from aliquots of plasma collected from untreated animals which were spiked with molecule 67 (0.25 μg-10 μg/ml). […] Reproducibility of the method was defined by both intra-, and inter-day variance. The retention time of Mol. 67 was 10.688 min, at which no other interfering peak was observed. The lower limit of detection (LOD) was 11 ng/ml; limit of quantitation (LOQ) was 32 ng/ml; recovery was 90±2%.
HPLC determinations were done on Shimadzu chromatograph (Model: LC-10 Atvp equipped with a diode array detector). Molecule 67 was determined at 276 nm using RP-18 column (5 μm×25 cm). Mobile phase consisted of acetonitrile: water (55:45) with a flow rate of 1.0 ml/min.
Step 3: Calculating Bioavailability indices: A concentration-time curve for Molecule 67 was established and pharmacokinetic parameters AUC, Cmax, and tmax were determined by a non-compartmental analysis using TOPFIT software package. Absolute bioavailability was determined using the following formula: AUCoral×doseiv/AUCiv×Doseoral.

Setting [1] is: both sexes, Swiss, mouse, plasma, iv, 10 mg/kg.
The mark [2] stands for this setting: both sexes, Swiss, mouse, plasma, oral, 20 mg/kg.

The structures appear in SMILES notation. Where “and” joins values, the source holds several entries; their conditions need not be identical. Equal values may be shown once. Read-outs that look alike come from different tables or passages of the source.

What is called Tmax is the time at which the peak concentration occurs. Usually AUC stands for the area under the concentration-time curve, a measure of exposure. Low readings indicate less exposure, high ones more exposure. As usually defined, the Cmax is the peak of the concentration-time curve. As a reminder, the AUC(0-t) is exposure summed from dosing to a finite time, without extrapolation to infinity. The low end stands for low exposure, the high end for high exposure. The bioavailability is the share of a dose that reaches the circulation, judged against a reference dose that is usually intravenous. Regarding `COc1ccc(C(c2[nH]c3ccccc3c2CC(=O)O)c2[nH]c3ccccc3c2CC(=O)O)cc1Oc1nc(NC2CC2)nc(NC2CC2)n1` [Compound 7, 2,2′-[2,2′-3-(4,6-bis-cyclopropylamino)-1,3,5-triazin-2-yl-oxy-4-methoxy-phenyl]-methylene-bis-(1H-indole-3,3-diyl)-diacetic acid], the time to peak (Tmax) is, setting by setting: under setting [1], 0.167 h; (both sexes, Swiss, mouse, plasma, po, 20 mg/kg) 3 h; (both sexes, Swiss, mouse, plasma, po, 20 mg/kg, 20 mg/kg (Table 2)) 2 h. Moreover, the half-life (both sexes, Swiss, mouse, plasma, iv, 10 mg/kg, i.v., 10 mg/kg) is 0.93 h and the half-life (both sexes, Swiss, mouse, plasma, po, 20 mg/kg, oral, 20 mg/kg) was 4.26 h. The AUC runs as follows: under setting [1], 358 ng·h/mL; under setting [2], 503 ng·h/mL. Further, the maximum concentration (Cmax) was found to be 332 ng/mL under setting [1] and 107 ng/mL under setting [2]. In addition, the clearance under setting [1] was 466 mL/min and 466 mL/min/kg. This molecule had an AUC(0-t) (both sexes, Swiss, mouse, plasma, iv, 10 mg/kg (Table 2)) of 358 ng·h/mL and an AUC(0-t) (both sexes, Swiss, mouse, plasma, oral, 20 mg/kg (Table 2)) of 503 ng·h/mL. In addition, the Vd is, setting by setting: (both sexes, Swiss, mouse, plasma, iv, i.v., 10 mg/kg, read-out: Vd) 37.5 L and 37.5 L/kg; (oral, 20 mg/kg, listed as TA-67, 20 mg/kg) 474 L. Besides, the bioavailability (both sexes, Swiss, mouse, plasma, oral, AUCoral×doseiv/AUCiv×Doseoral, read-out: Absolute bioavailability (F)) came to 70.3%. Further, the “T ½” value (i.v., 10 mg/kg, listed as IICT-TA67, 10 mg/kg) worked out at 1.5 h.
